Measurements reported in PMC2895411 (Journal of medicinal chemistry, 2010).
Entries after “also recorded” stand apart in the source; their conditions may differ.

target: T1, human TLR7 (Homo sapiens, UniProt Q9NYK1); experiment: NF-κB induction, human TLR7-specific reporter gene assay; assay type: cell-based; details: not given
T1 sequence (Q9NYK1 27-1049): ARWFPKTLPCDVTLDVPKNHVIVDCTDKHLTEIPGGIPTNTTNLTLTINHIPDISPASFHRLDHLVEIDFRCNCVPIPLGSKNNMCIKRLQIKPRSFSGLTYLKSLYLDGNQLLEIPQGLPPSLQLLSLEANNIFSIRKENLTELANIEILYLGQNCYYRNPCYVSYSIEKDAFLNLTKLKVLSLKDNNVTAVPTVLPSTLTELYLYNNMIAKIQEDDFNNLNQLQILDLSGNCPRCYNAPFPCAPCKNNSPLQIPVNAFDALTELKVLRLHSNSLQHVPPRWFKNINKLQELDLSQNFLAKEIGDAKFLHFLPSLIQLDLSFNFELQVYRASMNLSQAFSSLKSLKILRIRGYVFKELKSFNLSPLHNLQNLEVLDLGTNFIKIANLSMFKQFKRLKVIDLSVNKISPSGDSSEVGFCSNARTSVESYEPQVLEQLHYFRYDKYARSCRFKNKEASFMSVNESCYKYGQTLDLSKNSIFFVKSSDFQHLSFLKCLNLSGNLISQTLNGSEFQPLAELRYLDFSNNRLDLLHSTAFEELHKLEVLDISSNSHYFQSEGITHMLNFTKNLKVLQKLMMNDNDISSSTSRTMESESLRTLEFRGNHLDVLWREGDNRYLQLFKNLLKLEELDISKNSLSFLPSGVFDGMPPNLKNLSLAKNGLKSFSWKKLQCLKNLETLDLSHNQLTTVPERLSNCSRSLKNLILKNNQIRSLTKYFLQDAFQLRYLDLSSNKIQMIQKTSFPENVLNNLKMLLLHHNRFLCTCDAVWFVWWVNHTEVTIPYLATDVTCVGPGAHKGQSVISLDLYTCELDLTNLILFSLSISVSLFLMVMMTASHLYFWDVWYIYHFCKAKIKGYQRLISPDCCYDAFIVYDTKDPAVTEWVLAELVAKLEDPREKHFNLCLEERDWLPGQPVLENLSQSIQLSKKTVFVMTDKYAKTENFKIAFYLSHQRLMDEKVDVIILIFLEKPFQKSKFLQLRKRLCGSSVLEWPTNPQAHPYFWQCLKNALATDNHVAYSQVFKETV

Row | Compound | EC50 [nM]
1 | CC(C)Cn1cnc2c(N)nc3ccccc3c21 [Compound 1, Imiquimod, reference compound] | ~2000

same assay, conditions: fold greater activity than 2

Row | Compound | TLR7 activity relative to compound 2
2 | CCCCCc1nc2c(N)nc3ccccc3c2n1Cc1ccccc1 [Compound 32, 1-Benzyl-2-pentyl-1H-imidazo[4,5-c]quinolin-4-amine] | twenty-fold greater

same assay, conditions: human TLR7 reporter gene assay

Row | Compound | TLR7-agonistic activity, result in words
3 | CCCCc1nc2cnc3ccccc3c2n1Cc1ccccc1 [Compound 50, 1-Benzyl-2-butyl-1H-imidazo[4,5-c]quinoline] | completely inactive
4 | CCCCCc1nc2c(-c3ccccc3)nc3ccccc3c2n1Cc1ccccc1 [Compound 47, 1-Benzyl-2-pentyl-4-phenyl-1H-imidazo[4,5-c]quinoline] | completely inactive
5 | CCCCCCCCCCCCCCCC(=O)N(CC)Cc1nc2c(N)nc3ccccc3c2n1CC(C)(C)O [Compound 5, N-((4-Amino-1-(2-hydroxy-2-methylpropyl)-1H-imidazo[4,5-c]quinolin-2-yl)methyl)-N-ethylpalmitamide] | bereft of activity
6 | CCN(Cc1nc2c(N)nc3ccccc3c2n1CC(C)(C)O)C(C)=O [Compound 4, N-((4-Amino-1-(2-hydroxy-2-methylpropyl)-1H-imidazo[4,5-c]quinolin-2-yl)methyl)-N-ethylacetamide] | bereft of activity
7 | CCN(CCCNC(=S)NCCCNCCCCNCCCN)Cc1nc2c(N)nc3ccccc3c2n1CC(C)(C)O [Compound 16, 1-(3-(((4-amino-1-(2-hydroxy-2-methylpropyl)-1H-imidazo[4,5-c]quinolin-2-yl)methyl)(ethyl)amino)propyl)-3-(3-(4-(3-aminopropylamino)butylamino)propyl) thiourea] | inactive
8 | Clc1nc2ccccc2c2c1nnn2Cc1ccccc1 [Compound 55, 1-Benzyl-4-chloro-1H-[1,2,3]triazolo[4,5-c]quinoline] | completely inactive
9 | CCCCc1nc2c(NN)nc3ccccc3c2n1Cc1ccccc1 [Compound 49, 1-Benzyl-2-butyl-4-hydrazinyl-1H-imidazo[4,5-c]quinoline] | substantially weaker
10 | CCCCCc1nc2c(Cl)nc3ccccc3c2n1Cc1ccccc1 [Compound 44, 1-Benzyl-4-chloro-2-pentyl-1H-imidazo[4,5-c]quinoline] | completely inactive
11 | CCNCc1nc2c(N)nc3ccccc3c2n1Cc1ccccc1 [Compound 52, 1-Benzyl-2-((ethylamino)methyl)-1H-imidazo[4,5-c]quinolin-4-amine] | very active
12 | CCCCc1nc2c(NO)nc3ccccc3c2n1Cc1ccccc1 [Compound 48, N-(1-Benzyl-2-butyl-1H-imidazo[4,5-c]quinolin-4-yl)hydroxylamine] | substantially weaker
13 | Nc1nc2ccccc2c2c1nnn2Cc1ccccc1 [Compound 56, 1-Benzyl-1H-[1,2,3]triazolo[4,5-c]quinolin-4-amine] | completely inactive
14 | CCN(CCOCCOCCN)Cc1nc2c(N)nc3ccccc3c2n1CC(C)(C)O [Compound 11, 1-(4-Amino-2-(((2-(2-(2-aminoethoxy)ethoxy)ethyl) (ethyl)amino)methyl)-1H-imidazo[4,5-c]quinolin-1-yl)-2-methylpropan-2-ol] | completely inactive
15 | CCCNC(=O)n1c(=O)n(Cc2ccccc2)c2c3ccccc3ncc21 [Compound 57, 1-Benzyl-2-oxo-N-propyl-1H-imidazo[4,5-c]quinoline-3(2H)-carboxamide] | completely inactive
16 | CC/N=C(/NCCCN(C)C)N(CC)Cc1nc2c(N)nc3ccccc3c2n1CC(C)(C)O [Compound 6, 1-((4-Amino-1-(2-hydroxy-2-methylpropyl)-1H-imidazo[4,5-c]quinolin-2-yl)methyl)-3-(3-(dimethylamino)propyl)-1,2-diethylguanidine] | bereft of activity
17 | CCCCCCCCCCCNCc1nc2c(N)nc3ccccc3c2n1CC(C)(C)O [Compound 22, 1-(4-Amino-2-((undecylamino)methyl)-1H-imidazo[4,5-c]quinolin-1-yl)-2-methylpropan-2-ol] | complete loss of activity; also recorded: completely inactive
18 | CCN(CC)Cc1nc2c(N)nc3ccccc3c2n1CC(C)(C)O [Compound 3, 1-(4-Amino-2-((diethylamino)methyl)-1H-imidazo[4,5-c]quinolin-1-yl)-2-methylpropan-2-ol] | partial activity
19 | CCCCCc1nc2c(O)nc3ccccc3c2n1Cc1ccccc1 [Compound 46, 1-Benzyl-2-pentyl-1H-imidazo[4,5-c]quinolin-4-ol] | completely inactive
20 | C=CCCc1nc2c(N)nc3ccccc3c2n1Cc1ccccc1 [Compound 38, 1-Benzyl-2-(but-3-enyl)-1H-imidazo[4,5-c]quinolin-4-amine] | decrease in potency
21 | C#CCCc1nc2c(N)nc3ccccc3c2n1Cc1ccccc1 [Compound 43, 1-Benzyl-2-(but-3-ynyl)-1H-imidazo[4,5-c]quinolin-4-amine] | decrease in potency
